Data from patent US20250304617A1, “COMPOUND, SALT OF COMPOUND, ANTIBODY MODIFICATION REAGENT, METHOD FOR PRODUCING MODIFIED ANTIBODY, AND MODIFIED ANTIBODY” (Kagoshima University, priority 2021, published 2025).

Assay: Examination of stability in DMSO (HPLC purity)
Type: physicochemical
Settings: 20 mg/mL in DMSO
Method: The compound A, the compound B, or the comparative example was dissolved in DMSO at a content of 20 mg/mL, allowed to stand at room temperature or −20° C. for a predetermined time, and analyzed by HPLC.
For the compound A, the compound B, and the comparative example, the ratio of the area of the main peak to the sum of the areas of all peaks (HPLC purity) is shown in Table 1.

SMILES: [N-]=[N+]=NCCCCC1NONC(C(N)=O)CCCCC(NCCCC(=O)C(Cc2ccccc2)NC(=O)CCCC(=O)ON2C(=O)CCC2=O)C(=O)N1 (stereo not shown) [Comparative example, DSG-αZ34C, reference compound]
- HPLC purity (ratio of the area of the main peak to the sum of the areas of all peaks) (room temperature, 0 Hours): 85%
- HPLC purity (ratio of the area of the main peak to the sum of the areas of all peaks) (room temperature, 22 Hours): 83%
- HPLC purity (ratio of the area of the main peak to the sum of the areas of all peaks) (−20° C., 0 Days): 92%
- HPLC purity (ratio of the area of the main peak to the sum of the areas of all peaks) (−20° C., 30 Days): 85%
